# From US5670538A, “Use of prodelphinidins for obtaining medicaments intended for the treatment of arthrosis” (Laboratoires Dolisos, priority 1992, dated 1997)
# Tested on: ferricytochrome C
# Experiment: Control experiments: direct reduction of ferricytochrome C by the product itself
# Assay type: biochemical
# Conditions: effect not quantifiable
# Text: This effect not being quantifiable, no conclusion can consequently be drawn on a possible inhibiting effect of these products on the production of the superoxide anion by the activated PMNs.
smiles,measurement,value
"O=c1ccc2cc(O[C@@H]3O[C@H](CO)[C@@H](O)[C@H](O)[C@H]3O)c(O)cc2o1 [esculoside, reference compound]",Direct reduction of ferricytochrome C,powerful reducers of ferricytochrome C
